The text below walks through data of patent publication US20230339834A1, “CHLORINATED FLUOROAROMATICS AND METHODS OF USING SAME” (3M INNOVATIVE PROPERTIES COMPANY, priority 2019, published 2023).

Structures are written as SMILES. A value given as a limit tells only on which side of the number the result lay.

A short description of data set [1]: Liquid dielectric breakdown strength (ASTM D877-87). In kind it is physicochemical. The following applies: 2.5 mm gap, 60 Hz. How it is done: The liquid dielectric breakdown strength measurements were performed in accordance with ASTM […]-87(1995), “Standard Test Method for Dielectric Breakdown Voltage of Insulating Liquids.” Disk electrodes 25mm in diameter, with 2.5 mm (0.10'') spacing between the electrodes, were utilized with a Phenix Technologies Model LD 60 that is specifically designed for testing in the 7-60 kV, 60 Hz (higher voltage) breakdown range. For this experiment, a frequency of 60 Hz and a ramp rate of 500 volts per second were utilized, as is typical.

Data set [2] in a line: Flash point, small scale closed cup (ASTM D-3278-96 e-1). In kind it is physicochemical. Conditions: no flash point = non-flammable.
A short description of data set [3]: Dielectric constant (ASTM D150-11, broadband dielectric spectrometer). In kind it is physicochemical. How it is done: Dielectric constants were measured using an Alpha-A High Temperature Broadband Dielectric Spectrometer (Novocontrol Technologies, Montabaur, Germany) in accordance with ASTM D150-11, “Standard Test Methods for AC Loss Characteristics and Permittivity (Dielectric Constant) of Solid Electrical Insulation.” The parallel plate electrode configuration was selected for this measurement. The sample cell of parallel plates, an Agilent 16452A liquid test fixture consisting of 38 mm diameter parallel plates (Keysight Technologies, Santa Rosa, CA, US) was interfaced to the Alpha-A mainframe while utilizing the ZG2 Dielectric/Impedance General Purpose Interface available from Novocontrol Technologies. Each sample was prepared between parallel plate electrodes with a spacing, d, (typically, d=1 mm) and the complex permittivity (dielectric constant and loss) were evaluated from the phase sensitive measurement of the electrodes voltage difference (Vs) and current (Is). Frequency domain measurements were carried out at discrete frequencies from 0.00001 Hz to 1 MHz. Impedances from 10 milliohms up to 1×10^14 ohms were measured up to a maximum of 4.2 volts AC. For this experiment, however, a fixed AC voltage of 1.0 volts was used. The DC conductivity (the inverse of volume resistivity) can also be extracted from an optimized broadband dielectric relaxation fit function that contains at least one term of the low frequency Havrrilak Negami dielectric relaxation function and one separate frequency dependent conductivity term.

The nature of data set [4]: Log KOW octanol/water partition coefficient by HPLC (OECD 117). In kind it is physicochemical. Conditions: HPLC method. On the procedure:
Values of Log KOW (octanol/water partition coefficients) were determined by HPLC using the method described in Organization for Economic Cooperation and Development (OECD) Test Method 117, “Partition Coefficient (n-octanol/water), HPLC Method.”

Data set [5] is classed as physicochemical. On the procedure: The boiling points reported in Table 1 were determined using the procedures outlined in ASTM E 1719-97 “Standard Test Method for Vapor Pressure of Liquids by Ebulliometry.” First, vapor pressure was measured, and then the boiling point was calculated as described in section 10 of ASTM method […]-97.
The nature of data set [6]: Kinematic viscosity (ASTM D445-94e1). In kind it is physicochemical. How it is done: Kinematic viscosity was determined in accordance with ASTM D445-94e1 “Standard Test Method for Kinematic Viscosity of Transparent and Opaque Liquids (the Calculation of Dynamic Viscosity)”, except the bath temperature was controlled to ±0.1° C., using a ViscoSystem AVS 350 viscosity timer (Schott Instruments GmbH, Hattenbergstraße 10 55122 Mainz Germany) and Hagenbach-corrected 545-03, 545-13 or 545-20 Ubbelohde viscometers (Cannon Instruments Company, Box 812, State College, PA). For temperatures below 0° C., a Lawler temperature control bath was used.

The format of data set [7] is physicochemical. The following applies: 200±2° C., 31.5 days, sealed borosilicate tube. How it is done:
To evaluate thermal stability, a flame-sealed borosilicate glass tube (50 mm outer diameter, 0.4 mm wall thickness) containing Example 1 [1.0 g, isomeric mixture of 4-Cl(C6H4)O(C9F17)] was completely submerged in a temperature-controlled oil bath at 200±2° C. for 31.5 days.

A short description of data set [8]: Density (DDM 2911 plus Automatic Density Meter). In kind it is physicochemical. How it is done: Density was measured using DDM 2911 plus Automatic Density Meter. Before measurement, the fluid was briefly degassed in the syringe by stoppering the syringe tip and pulling on the plunger to release bubbles.

Compound `F/C(=C(/C(F)(F)F)C(F)(Oc1ccc(Cl)cc1)C(F)(F)C(F)(F)F)C(F)(C(F)(F)F)C(F)(F)F` (centres unmarked) [Ex. 1, (E)-1-chloro-4-((1,1,1,2,2,3,5,6,7,7,7-undecafluoro-4,6-bis(trifluoromethyl)hept-4-en-3-yl)oxy)benzene] yielded a Dielectric strength in data set [1] of 46.6 kV. Moreover, in data set [2], the “Flash Point” value was “None”. The “Dielectric Constant @ 1 kHz” value in data set [3] is recorded as 2.57. Also, in data set [4], the “Log Kow” value is >6.4. Further, in data set [5], the “Boiling Point” value came out at 223 °C and the “Boiling point above non-chlorinated analog” value is “at least 22 °C”. Also, in data set [6], the “Viscosity at 0° C.” value was determined as 24.1 cSt. Besides, in data set [7], the “4-Cl(C6H4)O(C9F17) isomers by GC-FID, before and after heating” value was determined as 99.9±0.1%. For the same compound, the “Density at 25° C.” value in data set [8] turned out to be 1.65 g/mL.
For the compound `F/C(=C(/C(F)(F)F)C(F)(Oc1cc(Cl)cc(Cl)c1)C(F)(F)C(F)(F)F)C(F)(C(F)(F)F)C(F)(F)F` (centres unmarked) [Ex. 3, (E)-1,3-dichloro-5-((1,1,1,2,2,3,5,6,7,7,7-undecafluoro-4,6-bis(trifluoromethyl)hept-4-en-3-yl)oxy)benzene], the “Flash Point” value in data set [2] is recorded as “None”. Besides, in data set [3], the “Dielectric Constant @ 1 kHz” value is given as 2.54. In addition, in data set [5], the “Boiling Point” value came to 237 °C and the “Boiling point above non-chlorinated analog” value is 35 °C. Moreover, the “Viscosity at 0° C.” value in data set [6] stood at 40.8 cSt. Further, the “Density at 25° C.” value in data set [8] turned out to be 1.70 g/mL.
In data set [1], `FC(F)(F)C(=C(Oc1ccc(Cl)cc1)C(F)(F)C(F)(F)F)C(F)(F)F` [Ex. 2, 1-chloro-4-((1,1,1,4,4,5,5,5-octafluoro-2-(trifluoromethyl)pent-2-en-3-yl)oxy)benzene] registered a Dielectric strength of 50.7 kV. Further, in data set [2], the “Flash Point” value was “None”. Also, in data set [3], the “Dielectric Constant @ 1 kHz” value stood at 2.76. For the same compound, in data set [5], the “Boiling Point” value is 193 °C and the “Boiling point above non-chlorinated analog” value was “at least 22 °C”. Also, in data set [6], the “Viscosity at 0° C.” value turned out to be 8.4 cSt. The “Density at 25° C.” value in data set [8] amounted to 1.58 g/mL.
`F/C(=C(/C(F)(F)F)C(F)(Oc1ccccc1)C(F)(F)C(F)(F)F)C(F)(C(F)(F)F)C(F)(F)F` (centres unmarked) [CE1, (E)-((1,1,1,2,2,3,5,6,7,7,7-Undecafluoro-4,6-bis(trifluoromethyl)hept-4-en-3-yl)oxy)benzene] had a Dielectric strength in data set [1] of 38.1 kV. For the same compound, in data set [2], the “Flash Point” value is “None”. In addition, the “Dielectric Constant @ 1 kHz” value in data set [3] turned out to be 4.42. For the same compound, the “Log Kow” value in data set [4] is >6.4. The “Boiling Point” value in data set [5] was 201 °C. Besides, the “Viscosity at 0° C.” value in data set [6] came out at 8.7 cSt. In data set [8], the “Density at 25° C.” value amounted to 1.62 g/mL.
In turn, `F/C(=C(/C(F)(F)F)C(F)(Oc1ccc(F)cc1)C(F)(F)C(F)(F)F)C(F)(C(F)(F)F)C(F)(F)F` (centres unmarked) [CE3, (E)-1-fluoro-4-((1,1,1,2,2,3,5,6,7,7,7-undecafluoro-4,6-bis(trifluoromethyl)hept-4-en-3-yl)oxy)benzene] came in with a Dielectric strength in data set [1] of 38.1 kV. The “Flash Point” value in data set [2] is recorded as “None”. The “Dielectric Constant @ 1 kHz” value in data set [3] is given as 2.63. Also, the “Log Kow” value in data set [4] was >6.4. For the same compound, in data set [5], the “Boiling Point” value was 206 °C and the “Boiling point above non-chlorinated analog” value was determined as 5 °C. In data set [6], the “Viscosity at 0° C.” value is 11.8 cSt. Further, in data set [8], the “Density at 25° C.” value is 1.68 g/mL.
`FC(F)(F)C(=C(Oc1ccccc1)C(F)(F)C(F)(F)F)C(F)(F)F` [CE2] displayed a Dielectric strength in data set [1] of 31.1 kV. Besides, the “Flash Point” value in data set [2] is “None”. Further, in data set [3], the “Dielectric Constant @ 1 kHz” value stood at 5.16. In data set [4], the “Log Kow” value is 5.5. In data set [5], the “Boiling Point” value is 169 °C. Besides, the “Viscosity at 0° C.” value in data set [6] was 3.6 cSt. The “Density at 25° C.” value in data set [8] stood at 1.51 g/mL.
